Tested on: MRC5
Assay: Inhibitory activity of compound against human cytomegalovirus (HCMV) in MRC-5 cells.
Assay type: functional, cell-based

Nc1nc2c(ncn2COC(CO)CO)c(=O)[nH]1 [GANCICLOVIR]
EC50: 9.4 µM

Source: ChEMBL document CHEMBL1144867, “Antiviral amphipathic oligo- and polyribonucleotides: analogue development and biological studies” (J Med Chem, 2003)
